Reference: paper PMC4210897, “Antimicrobial Activity of Peptides Derived from Olive Flounder Lipopolysaccharide Binding Protein/Bactericidal Permeability-Increasing Protein (LBP/BPI)” (Marine Drugs, 2014)
Where no end group is shown, it is not given here.

Columns and labels:
B. subtilis KCTC1021 = experiment: Ultrasensitive radial diffusion assay (URDA), MEC; assay type: cell-based, Bacillus subtilis; conditions: B. subtilis KCTC1021, Gram +, 10 mM PB pH 6.6, 37 °C, x-intercept of units vs log10 concentration, triplicate averaged
Experimental: (§1) The antimicrobial activity of the purified peptide was assessed as described previously. We tested the synthetic peptides against several Gram-positive bacteria including two Bacillus subtilis strains, Micrococcus luteus, Staphylococcus aureus, and Streptococcus iniae, Gram-negative bacteria including three Escherichia coli strains, Aeromonas hydrophila, Edwardsiella tarda, Pseudomonas aeruginosa, Vibrio parahemolyticus, and Salmonella enteric, as well as the yeast Candida albicans. All strains were grown overnight for 18 h in trypticase soy broth (TSB) or sabouraud dextrose broth (SDB) at the appropriate temperature (25 °C for A. hydrophila, E. tarda, P. aeruginosa, S. iniae, and V. parahemolyticus and 37 °C for the other strains). After an overnight incubation, the bacterial and C. albicans suspensions were diluted to a McFarland turbidity standard of 0.5 (Vitek Colorimeter #52-1210; Hach, Loveland, CO, USA) corresponding to ~10^8 CFU/mL for bacteria and ~10^6 CFU/mL for C. albicans. One-half milliliter of diluted bacterial or C. albicans suspension was added to 9.5 mL of underlay gel containing 5 × 10^6 CFU/mL or 5 × 10^4 CFU/mL in 10 mM phosphate buffer (PB; pH 6.6) with 0.03% TSB or 0.03% SDB and 1% Type I (low EEO) agarose. The purified peptide was serially diluted twofold in 5 μL of acidified water (0.01% HAc), and each dilution was added to 2.5-mm-diameter wells made in the 1-mm-thick underlay gels. After incubation for 3 h at either 25 °C (for A. hydrophila, E. tarda, P. aeruginosa, S. iniae, and V. parahemolyticus) or 37 °C (the other strains), the bacterial or yeast suspension was overlaid with 10 mL of double-strength overlay gel containing 6% TSB or 6% SDB with 10 mM PB (pH 6.6) in 1% agarose. Plates were incubated for an additional 18–24 h, after which the clearing zone diameters were measured. After subtracting the diameter of the well, the clearing zone diameter was expressed in units (0.1 mm = 1 U).
(§2) All tested bacteria and yeast were prepared as described above. The minimal effective concentration (MEC, μg/mL) of the synthetic peptides was calculated as the x-intercept of a plot of units against the log10 of the peptide concentration. […] The antimicrobial assay was performed in triplicate and the results were averaged.

E. coli KCTC1116 = experiment: URDA, MEC; assay type: cell-based, Escherichia coli; conditions: E. coli KCTC1116, Gram −, pH 6.6, 37 °C, triplicate averaged
Experimental: as §1, §2

E. coli ML35p = experiment: URDA, MEC; assay type: cell-based, Escherichia coli; conditions: Gram −, pH 6.6, 37 °C, triplicate averaged
Experimental: as §1, §2

S. aureus RM4220 = experiment: URDA, MEC; assay type: cell-based, Staphylococcus aureus; conditions: S. aureus RM4220, Gram +, pH 6.6, 37 °C, triplicate averaged
Experimental: as §1, §2

E. tarda H-4 = experiment: URDA, MEC; assay type: cell-based, Edwardsiella tarda; conditions: fish pathogen E. tarda H-4, Gram −, pH 6.6, 25 °C, triplicate averaged
Experimental: as §1, §2

P. aeruginosa KCTC2004 = experiment: URDA, MEC; assay type: cell-based, Pseudomonas aeruginosa; conditions: P. aeruginosa KCTC2004, Gram −, pH 6.6, 25 °C, triplicate averaged
Experimental: as §1, §2

C. albicans KCTC7965 = experiment: URDA, MEC; assay type: cell-based, Candida albicans; conditions: C. albicans KCTC7965, yeast, pH 6.6, 37 °C, triplicate averaged
Experimental: as §1, §2

[1] = tested on: E. coli ML35p outer membrane; experiment: Outer membrane permeabilization, NPN uptake assay; assay type: cell-based, Escherichia coli; conditions: peptide 40 μg/mL, 3 min after addition, 25 °C, 5 mM HEPES pH 7.2; order 2A > 6A > 1N > 5A; triplicate
Experimental: (§3) The outer membrane-permeabilizing activity of peptides was determined using the 1-N-phenylnapthylamine (NPN) uptake assay as described by Koo et al.. Briefly, an overnight culture of E. coli ML35p was transferred to fresh TSB medium and grown to A600 of 0.5–0.6. Cells were harvested, washed, and resuspended in the same volume of buffer (5 mM HEPES, pH 7.2, 5 mM KCN, and 5 mM glucose). Next, 20 μL of 0.5 mM NPN was added and mixed with 1 mL of cells, and peptide samples (40 μg/mL) were added after 3 min. The increase in fluorescence due to partitioning of NPN into the outer membrane was measured 3 min after the addition of peptides using a spectrofluorometer (LS 50B Fluorescence Spectrometer; PerkinElmer, Waltham, MA, USA) at an excitation wavelength of 350 nm and an emission wavelength of 420 nm at 25 °C. The extent of cytoplasmic membrane permeabilization was determined by measuring β-galactosidase activity in E. coli ML35p using O-nitrophenyl-β-D-galactopyranoside (ONPG), a nonmembrane-permeative chromogenic substrate. Mid-logarithmic phase E. coli cells were washed in 10 mM sodium phosphate buffer (NaPB), pH 7.4, and resuspended in the same buffer with 1.5 mM ONPG. The hydrolysis of ONPG to O-nitrophenol over time was monitored spectrophotometrically at 420 nm following the addition of peptide samples. Membrane permeabilization assays were performed in triplicate and the results were averaged.

B. subtilis RM125 = experiment: URDA, MEC; assay type: cell-based, Bacillus subtilis; conditions: B. subtilis RM125, Gram +, pH 6.6, 37 °C, triplicate averaged
Experimental: as §1, §2

M. luteus ATCC9341 = experiment: URDA, MEC; assay type: cell-based, Micrococcus luteus; conditions: M. luteus ATCC9341, Gram +, pH 6.6, 37 °C, triplicate averaged
Experimental: as §1, §2

A. hydrophila KCTC2358 = experiment: URDA, MEC; assay type: cell-based, Aeromonas hydrophila; conditions: fish pathogen A. hydrophila KCTC2358, Gram −, pH 6.6, 25 °C, triplicate averaged
Experimental: as §1, §2

S. enterica KCTC2514 = experiment: URDA, MEC; assay type: cell-based, Salmonella enteric; conditions: S. enterica KCTC2514, Gram −, pH 6.6, 37 °C, triplicate averaged
Experimental: as §1, §2

S. iniae FP5229 = experiment: URDA, MEC; assay type: cell-based, Streptococcus iniae; conditions: fish pathogen S. iniae FP5229, Gram +, pH 6.6, 25 °C, triplicate averaged
Experimental: as §1, §2

[2] = tested on: E. coli ML35p inner cytoplasmic membrane; experiment: Cytoplasmic membrane permeabilization, β-galactosidase/ONPG assay; assay type: cell-based, Escherichia coli; conditions: peptide 40 μg/mL, 10 mM NaPB pH 7.4, 1.5 mM ONPG; triplicate
Experimental: as §3

[3] = tested on: V. parahemolyticus KCCM41664; experiment: URDA, MEC; assay type: cell-based, Vibrio parahemolyticus; conditions: fish pathogen V. parahemolyticus KCCM41664, Gram −, pH 6.6, 25 °C, triplicate averaged
Experimental: as §1, §2

Substance | Minimal Effectives Concentration (B. subtilis KCTC1021) | Minimal Effectives Concentration (E. coli KCTC1116) | Minimal Effectives Concentration (E. coli ML35p) | Minimal Effectives Concentration (S. aureus RM4220) | Minimal Effectives Concentration (E. tarda H-4) | Minimal Effectives Concentration (P. aeruginosa KCTC2004) | Minimal Effectives Concentration (C. albicans KCTC7965) | Outer membrane permeabilization ability (NPN fluorescence) [1] | Minimal Effectives Concentration (B. subtilis RM125) | Minimal Effectives Concentration (M. luteus ATCC9341) | Minimal Effectives Concentration (A. hydrophila KCTC2358) | Minimal Effectives Concentration (S. enterica KCTC2514) | Minimal Effectives Concentration (S. iniae FP5229) | Inner cytoplasmic membrane permeabilization ability (ONPG hydrolysis, 420 nm) [2] | Minimal Effectives Concentration [3]
KLVKTQLKVLK [ofLBP 4N] | 62.5 µg/mL | 1.5 µg/mL | 250.0 µg/mL | 62.5 µg/mL | >250.0 µg/mL | >250.0 µg/mL | 125.0 µg/mL | no inner or outer membrane permeability | 250.0 µg/mL | 250.0 µg/mL | >250.0 µg/mL | 250.0 µg/mL | >250.0 µg/mL | no permeabilization ability | 1.3 µg/mL
KLVKTWLKVLK [ofLBP 5A] | 0.7 µg/mL | 1.6 µg/mL | 1.6 µg/mL | 3.7 µg/mL | 250.0 µg/mL | 8.0 µg/mL | 4.0 µg/mL | significant outer membrane permeabilization ability | 4.2 µg/mL | 8.0 µg/mL | 5.0 µg/mL | 3.5 µg/mL | 2.7 µg/mL | no permeabilization ability | 1.2 µg/mL
MKLVKTWLKVLK-NH2 [ofLBP 6A] | 1.4 µg/mL | 3.8 µg/mL | 1.8 µg/mL | 2.7 µg/mL | 62.5 µg/mL | 4.6 µg/mL | 2.7 µg/mL | significant outer membrane permeabilization ability | 1.8 µg/mL | 2.2 µg/mL | 2.8 µg/mL | 2.6 µg/mL | 1.2 µg/mL | strong permeabilization ability | 0.9 µg/mL
Piscidin 1 [reference compound] | 2.3 µg/mL | 7.0 µg/mL | 2.3 µg/mL | 2.2 µg/mL | 125.0 µg/mL | 8.0 µg/mL | >62.5 µg/mL | strong permeabilization ability | 4.5 µg/mL | 2.3 µg/mL | 10.0 µg/mL | 7.0 µg/mL | 6.5 µg/mL | strong cytoplasmic membrane permeabilizing activity | 1.8 µg/mL
RFPGLMMKLLV-NH2 (C-terminus assumed) [ofLBP 1N] | 1.4 µg/mL | 1.7 µg/mL | 0.8 µg/mL | 5.6 µg/mL | 125.0 µg/mL | 6.4 µg/mL | 5.9 µg/mL | significant outer membrane permeabilization ability | 1.0 µg/mL | 5.3 µg/mL | 4.8 µg/mL | 1.2 µg/mL | 5.3 µg/mL | strong permeabilization ability | 2.2 µg/mL
RFPKLMMKLLV-NH2 [ofLBP 2A] | 0.8 µg/mL | 1.2 µg/mL | 0.6 µg/mL | 5.0 µg/mL | 62.5 µg/mL | 6.6 µg/mL | 5.6 µg/mL | significant outer membrane permeabilization ability | 1.2 µg/mL | 5.7 µg/mL | 3.6 µg/mL | 1.2 µg/mL | 3.0 µg/mL | strong permeabilization ability | 1.7 µg/mL
